The record followed here is patent US12714700B2 (priority 2017, dated 2026).

Structures are written as SMILES.

The subject of the assay is ob/ob mice. Conditions: cohort 2 (HFD conditioning, then 50 mg/kg), relative to untreated controls.

With `N#Cc1ccc2nnc(C(=O)N3CCC(c4cccc(F)c4C(F)(F)F)CC3)n2c1` [Compound 2, 3-(4-(3-fluoro-2-(trifluoromethyl)phenyl)piperidine-1-carbonyl)-[1,2,4]triazolo[4,3-a]pyridine-6-carbonitrile], the NASH fibrosis scores entry is “reduction” and the “amount of bridging fibrosis” value is “decrease”.
